In PubChem BioAssay (NCI):
Where “and” joins values, the source holds several entries; their conditions need not be identical. Identical values can stand only once.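 In this assay, cells in 96-well plates receive the compound at five concentrations for 48 hours. Endpoints are linearly interpolated between the surrounding concentrations. GI50 marks 50% less growth. TGI denotes the concentration required for complete inhibition of growth.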

How the values were obtained:
Experiment in all cases: growth of human tumour cells (NCI), 48 h
MCF7 breast = tested on: MCF7 breast
IGROV1 ovarian = tested on: IGROV1 ovarian
MOLT-4 leukemia = tested on: MOLT-4 leukemia
SF-268 CNS = tested on: SF-268 CNS
HOP-92 NSCLC = tested on: HOP-92 NSCLC
LOX IMVI melanoma = tested on: LOX IMVI melanoma
HS 578T breast = tested on: HS 578T breast
MDA-N = tested on: MDA-N
SNB-78 CNS = tested on: SNB-78 CNS
RXF-631 renal = tested on: RXF-631 renal
K-562 leukemia = tested on: K-562 leukemia

| SMILES | TGI (MCF7 breast) | TGI (IGROV1 ovarian) | TGI (MOLT-4 leukemia) | TGI (SF-268 CNS) | TGI (HOP-92 NSCLC) | TGI (LOX IMVI melanoma) | TGI (HS 578T breast) | TGI (MDA-N) | TGI (SNB-78 CNS) | TGI (RXF-631 renal) | TGI (K-562 leukemia) | GI50 (MDA-N) | GI50 (MCF7 breast) | GI50 (IGROV1 ovarian) | GI50 (MOLT-4 leukemia) | GI50 (SF-268 CNS) | GI50 (HOP-92 NSCLC) | GI50 (LOX IMVI melanoma) | GI50 (K-562 leukemia) | GI50 (HS 578T breast) |
| --- | --- | --- | --- | --- | --- | --- | --- | --- | --- | --- | --- | --- | --- | --- | --- | --- | --- | --- | --- | --- |
| COc1cc2c(cc1C1COc3cc4occc4cc3C1=O)OCO2 (configuration not stated) | > 100 µM | > 100 µM | > 100 µM | > 100 µM | > 100 µM | > 100 µM | 89.8 µM | > 100 µM |  |  |  |  |  |  |  |  |  |  |  |  |
| CC#CCC1CCC(OCC)=CC1=O (configuration not stated) |  | > 100 µM | > 100 µM | > 100 µM | > 100 µM | > 100 µM |  |  | > 100 µM | > 100 µM | > 100 µM |  |  |  |  |  |  |  |  |  |
| COC1C=COC2(C)Oc3c(C)c(O)c4c(c3C2=O)/C(=N/C2CCC(O)OC2C)C=C(NC(=O)/C(C)=C\C(=O)C2CC2C(O)C(C)C(O)C(C)C(OC(C)=O)C1C)C4=O (configuration not stated) | 4.74 µM | 6.13 µM | 8.05 µM | 10.5 µM | 5.29 µM | 3.24 µM | 8.38 µM | 3.83 µM |  |  | 6.3 µM |  |  |  |  |  |  |  |  |  |
| N#CC(C#N)=C1NC(=O)CC(=O)N1 |  | > 100 µM | > 100 µM | > 100 µM | > 100 µM | > 100 µM |  |  | > 100 µM |  | > 100 µM |  |  |  |  |  |  |  |  |  |
| O=C(/C=C/c1ccccc1)CCN1CCOCC1 | 24.1 µM | 27.1 µM | 29.7 µM | 38.3 µM | 38.1 µM | 24.8 µM | > 88.5 µM | 30.1 µM | 47.3 µM |  | 12.6 µM |  |  |  |  |  |  |  |  |  |
| COc1ccccc1-c1cc(=O)c2cc(C)cnc2[nH]1 | > 100 µM | > 100 µM | > 100 µM | > 100 µM | > 100 µM | > 100 µM | > 100 µM | 24.9 µM |  |  | 61.3 µM | 4.41 µM |  |  |  |  |  |  |  |  |
| O=[N+]([O-])c1ccc(C=Cc2ccccc2)cc1.[C-]#[O+].[C-]#[O+].[C-]#[O+].[Cr] | > 100 µM | > 100 µM | > 100 µM | > 100 µM | > 100 µM | > 100 µM | > 100 µM | > 100 µM |  |  | > 100 µM | 7.25 µM | 5.63 µM | 6.78 µM | 5.13 µM | 32 µM | 4.94 µM | 31.3 µM | 8.61 µM | 62.9 µM |
| COc1ccc(C=O)c([N+](=O)[O-])c1 |  | > 100 µM | > 100 µM | > 100 µM | > 100 µM | > 100 µM |  |  | > 100 µM | > 100 µM | 36 µM |  |  |  |  |  |  |  |  |  |
| Cc1cccc(C)c1NC(=O)/C(=N/NC(N)=S)C(C)C(=O)c1ccc(Cl)cc1 (configuration not stated) |  | > 100 µM | > 100 µM | > 100 µM | > 100 µM |  |  |  | > 100 µM | > 100 µM | > 100 µM |  |  |  |  |  |  |  |  |  |
| OCC12C3C4C5C3C1C5C42 (configuration not stated) | > 100 µM | > 100 µM | > 100 µM | > 100 µM | > 100 µM | > 100 µM | > 100 µM | > 100 µM |  |  | > 100 µM |  |  |  |  |  |  |  |  |  |
| CC/C=C\C/C=C\C/C=C\CCCCCCCC(=O)OCC(O)CO (configuration not stated) |  | > 100 µM | > 63.5 µM | > 100 µM | > 100 µM | > 59.6 µM |  |  | > 73.8 µM |  | 49 µM |  |  |  |  |  |  |  |  |  |
| COc1ccc(-c2cc(Cc3cccs3)c(=O)[nH]n2)cc1 |  | > 100 µM |  | > 100 µM | > 100 µM |  |  |  | > 100 µM |  |  |  |  |  |  |  |  |  |  |  |
| NC(CSC1c2ccccc2-c2ccccc21)C(=O)O (configuration not stated) | > 100 µM | > 100 µM | > 100 µM |  | > 100 µM | > 100 µM | > 100 µM | > 100 µM |  |  | > 100 µM |  |  |  |  |  |  |  |  |  |
| CCC(=O)C12OC3OC(C)(C)OC3C1OC(C)(C)O2 (configuration not stated) |  | > 100 µM | > 100 µM | > 100 µM | > 100 µM |  |  |  | > 100 µM | > 100 µM | > 100 µM |  |  |  |  |  |  |  |  |  |
| CCN(CC)CC1c2ccccc2C(CNc2ccccc2)N1C (configuration not stated) |  | > 100 µM | > 100 µM | > 100 µM | > 100 µM | > 100 µM |  |  | > 100 µM | > 100 µM | > 100 µM |  |  |  |  |  |  |  |  |  |
| Nc1nc(OCc2ccccc2)c2[nH]cnc2n1 | 355 µM | 93.3 µM and 271 µM and 34.4 µM | 200 µM and 126 µM | 400 µM and 574 µM | 89.2 µM and 239 µM and 183 µM | 273 µM and 115 µM | 49.5 µM and 57.5 µM |  | 400 µM | 309 µM | 400 µM and 307 µM |  | 41.9 µM and 41.8 µM | 25.3 µM and 9.01 µM | 88.4 µM and 33.5 µM | 53.2 µM | 7.9 µM and 27.2 µM | 34 µM and 26.2 µM | 46.4 µM | 18.9 µM and 18.3 µM |
| NNC(=O)CS(=O)(=O)Nc1ncccn1 | > 100 µM | > 100 µM |  | > 100 µM | > 100 µM | > 100 µM | > 100 µM | > 100 µM |  |  | > 100 µM |  |  |  |  |  |  |  |  |  |
| O=C(O)c1ccc(C(=O)c2ccccc2)c(C(=O)O)c1 | > 100 µM | > 100 µM | > 100 µM | > 100 µM | > 100 µM | > 100 µM | > 100 µM | > 100 µM |  |  | > 100 µM |  |  |  |  |  |  |  |  |  |
| O=C1CC(c2c[nH]c3ccccc23)C(=O)N1 (configuration not stated) |  | > 100 µM | > 100 µM |  |  |  |  |  | > 100 µM | > 100 µM | > 100 µM |  |  |  |  |  |  |  |  |  |
| O=C1c2ccccc2-c2cc([N+](=O)[O-])c([N+](=O)[O-])cc21 | 2.4 µM | 2.84 µM | 4.36 µM | 5.13 µM | 3.2 µM | 2.12 µM | > 100 µM | 5.18 µM |  |  | 8.04 µM |  |  |  |  |  |  |  |  |  |
